Experiments:
[1] = target: T1, Protein farnesyltransferase (Homo sapiens, UniProt P49354+P49356); assay: Concentration required for the inhibitory activity against human Farnesyltransferase; assay type: protein-complex assay
[2] = target: T1, Protein farnesyltransferase; assay: (§1) Inhibition of FPP incorporation into biotinylated K-Ras-derived peptide by human farnesyl transferase; assay type: functional
[3] = target: T1, Protein farnesyltransferase; assay: (§2) Inhibition of FPP incorporation into biotinylated K-Ras-derived peptide by human farnesyl transferase with 5 nM ATP; assay type: functional
[4] = target: T1, Protein farnesyltransferase; assay: as §2; assay type: functional; remark: listed apart in the source
[5] = target: Geranylgeranyl transferase type I (Homo sapiens, UniProt P49354+P53609); assay: Inhibitory activity against human Geranylgeranyl transferase type I; assay type: protein-complex assay
[6] = target: T1, Protein farnesyltransferase; assay: as §1; assay type: functional; remark: listed apart in the source
[7] = target: T1, Protein farnesyltransferase; assay: as §1; assay type: functional; remark: listed apart in the source
[8] = target: T1, Protein farnesyltransferase; assay: as §1; assay type: functional; remark: listed apart in the source
[9] = target: T1, Protein farnesyltransferase; assay: as §1; assay type: functional; remark: listed apart in the source
[10] = target: T1, Protein farnesyltransferase; assay: Inhibition of FPP incorporation into biotinylated K-Ras-derived peptide by human farnesyl transferase 5 nM ATP; assay type: functional
[11] = target: T1, Protein farnesyltransferase; assay: as §2; assay type: functional; remark: listed apart in the source
[12] = target: T1, Protein farnesyltransferase; assay: as §2; assay type: functional; remark: listed apart in the source
[13] = target: T1, Protein farnesyltransferase; assay: Inhibition of HDJ-2 farnesylation in PSN-1 cells; assay type: functional, cell-based
[14] = target: T1, Protein farnesyltransferase; assay: Inhibition of K-Ras farnesylation in PSN-1 cells with 100 nM GGT1; assay type: functional, cell-based
[15] = target: T1, Protein farnesyltransferase; assay: Inhibition of K-Ras farnesylation in PSN-1 cells without GGT1; assay type: functional, cell-based
[16] = target: T1, Protein farnesyltransferase; assay: Inhibition of HDJ-2 farnesylation in PSN-1 cells with 100 nM GGT1; assay type: functional, cell-based
[17] = target: T1, Protein farnesyltransferase; assay: Inhibition of HDJ-2 farnesylation in PSN-1 cells at without GGT1; assay type: functional, cell-based

SMILES	IC50 [1]	also measured
COc1ccccc1-c1[nH]c2ccccc2c1CC(=O)N(Cc1ccncc1)C(C)C	1.37 µM	–
CC(C)N(Cc1ccncc1)C(=O)Cc1c(-c2ccccc2Cl)[nH]c2ccccc12	0.046 µM	–
N#CCCN(C(=O)Cc1c(-c2ccccc2)[nH]c2ccccc12)C1CC1	0.123 µM	–
CCN(Cc1ccncc1)C(=O)Cc1c(-c2ccccc2)[nH]c2ccccc12	0.106 µM	IC50 [2]: 0.23 µM; IC50 [3]: 0.19 µM; IC50 [4]: 0.065 µM; IC50 [5]: > 20 µM; IC50 [6]: 4 µM; IC50 [7]: 0.054 µM; IC50 [8]: 0.25 µM; IC50 [9]: 0.23 µM; IC50 [10]: 0.02 µM; IC50 [11]: 0.043 µM; IC50 [12]: 0.047 µM
CC[C@H](C)N(Cc1ccncc1)C(=O)Cc1c(-c2ccccc2)[nH]c2ccccc12	0.077 µM	–
CC(C)N(Cc1cnccn1)C(=O)Cc1c(-c2ccccc2)[nH]c2ccccc12	0.4 µM	–
CC(C)N(Cc1ccncc1)C(=O)Cc1c(-c2ccc(Br)cc2)[nH]c2ccccc12	14.4 µM	–
Cn1c(-c2ccccc2)c(CC(=O)N(CCC#N)C2CC2)c2ccccc21	0.182 µM	–
CC(C)N(Cc1ccncc1)C(=O)Cc1cn(Cc2ccccc2Br)c2ccccc12	0.572 µM	–
O=C(Cc1c(-c2ccccc2)[nH]c2ccccc12)N(Cc1cccnc1)Cc1cccnc1	2.73 µM	–
CC(C)N(Cc1ccoc1)C(=O)Cc1c(-c2ccccc2)[nH]c2ccccc12	0.11 µM	–
CC(C)N(Cc1ccncc1)C(=O)Cc1c[nH]c2ccccc12	> 50 µM	–
O=C(Cc1c(-c2ccccc2)[nH]c2ccccc12)N(Cc1cccnc1)C1CC1	0.045 µM	–
CCCCn1c(-c2ccccc2)c(CC(=O)N(Cc2ccncc2)C(C)C)c2ccccc21	> 50 µM	–
CC(C)N(Cc1ccco1)C(=O)Cc1c(-c2ccccc2)[nH]c2ccccc12	0.241 µM	–
CC[C@@H](C)N(Cc1ccncc1)C(=O)Cc1c(-c2ccccc2)[nH]c2ccccc12	4.59 µM	–
CC(C)N(Cc1ccnn1C)C(=O)Cc1c(-c2ccccc2)[nH]c2ccccc12	0.245 µM	–
CC(C)N(Cc1ccncc1)C(=O)Cc1c(-c2ccccc2)n(C)c2ccccc12	0.015 µM	EC50 [13]: 1.33 µM; EC50 [14]: 1.8 µM; EC50 [15]: > 30 µM; EC50 [16]: 1 µM; EC50 [17]: 1.98 µM
CC(C)CN(Cc1ccccn1)C(=O)Cc1c(-c2ccccc2)[nH]c2ccccc12	1.5 µM	–
CCn1c(-c2ccccc2)c(CC(=O)N(Cc2ccncc2)C(C)C)c2ccccc21	3.8 µM	–
N#Cc1ccc(Cn2cncc2CN2CCN(C(=O)NC34CC5CC(CC(C5)C3)C4)CC2)cc1	0.517 µM	IC50 [5]: 0.0002 µM

SMILES	IC50 [1]	also measured
CC(C)N(Cc1ccncc1)C(=O)Cc1c(-c2cccc(Cl)c2)[nH]c2ccccc12	0.172 µM	–
CC(C)CN(Cc1cccnc1)C(=O)Cc1c(-c2ccccc2)[nH]c2ccccc12	2.48 µM	–
CC(C)N(Cc1ccn(C)n1)C(=O)Cc1c(-c2ccccc2)[nH]c2ccccc12	0.568 µM	–
CC(C)N(Cc1ccncc1)C(=O)Cc1cn(Cc2cccc(Br)c2)c2ccccc12	2.15 µM	–
CC(C)N(Cc1ccncc1)C(=O)Cc1c(-c2ccccc2)[nH]c2ccccc12	0.041 µM	–
CC(C)N(Cc1cccnc1)C(=O)Cc1c(-c2ccccc2)[nH]c2ccccc12	0.058 µM	–
Cc1ccccc1-c1c(CC(=O)N(Cc2ccncc2)C(C)C)c2ccccc2n1C	0.012 µM	EC50 [13]: 1.06 µM
O=C(Cc1c(-c2ccccc2)[nH]c2ccccc12)N(Cc1cccnc1)C1CCC1	0.044 µM	–
CC(C)N(Cc1cnn(C)c1)C(=O)Cc1c(-c2ccccc2)[nH]c2ccccc12	0.527 µM	–
CCCn1c(-c2ccccc2)c(CC(=O)N(Cc2ccncc2)C(C)C)c2ccccc21	29.9 µM	–
CC(C)N(Cc1ccncc1)C(=O)Cc1cn(Cc2ccc(Br)cc2)c2ccccc12	1.74 µM	–
O=C(Cc1c(-c2ccccc2)[nH]c2ccccc12)N(Cc1cccnc1)C1CCCC1	11.4 µM	–
CC(C#N)N(Cc1cccnc1)C(=O)Cc1c(-c2ccccc2)[nH]c2ccccc12 (stereo not given)	0.38 µM	–
CC(C)N(Cc1ccccn1)C(=O)Cc1c(-c2ccccc2)[nH]c2ccccc12	0.684 µM	–
O=C(Cc1c(-c2ccccc2)[nH]c2ccccc12)N(Cc1ccncc1)C1CCCC1	4 µM	–
O=C(Cc1c(-c2ccccc2)[nH]c2ccccc12)N(Cc1ccncc1)C1CCC1	0.16 µM	–
Cc1ccccc1-c1[nH]c2ccccc2c1CC(=O)N(CCC#N)C1CC1	0.712 µM	–
Cc1ccccc1-c1[nH]c2ccccc2c1CC(=O)N(Cc1ccncc1)C(C)C	0.031 µM	–
CC(C)N(Cc1cncnc1)C(=O)Cc1c(-c2ccccc2)[nH]c2ccccc12	0.232 µM	–
N#CCCN(C(=O)Cc1c(-c2ccccc2Cl)[nH]c2ccccc12)C1CC1	1.63 µM	–
O=C(Cc1c(-c2ccccc2)[nH]c2ccccc12)N(Cc1ccncc1)C1CC1	0.171 µM	–

— ChEMBL document CHEMBL1134005, “2-Arylindole-3-acetamides: FPP-competitive inhibitors of farnesyl protein transferase” (Bioorg Med Chem Lett, 2001)
